# Experimental data: PMC7253423, “Quassinoid analogs with enhanced efficacy for treatment of hematologic malignancies target the PI3Kγ isoform” (Communications Biology, 2020)
# Several values for one entry are separate records, joined by “and”; a condition that tells them apart may be missing. Equal entries are not always repeated. Where two headings read alike, the source gives them in different places.
# How the values were obtained:
# MOLM14 cells = assay: Cell viability assay (CellTiter-Glo luminescence); assay type: cell-based; conditions: Homo sapiens
# Method: (§1) 5000 cells as indicated were cultured in 96-well plate with 100 μl of media. […] After treatment, the cells were incubated with 100 μl buffer for 10 min at room temperature following the instructions of CellTiter-Glo kit (Promega, Madison, WI). Luminescence was detected using a multi-mode reader Cytation 5 (BioTek, Winooski, VT). […] Two independent experiments done in duplicates were performed.
# [1] = Body weight of xenograft mice; assay type: in vivo, NOD/SCID mice; conditions: individual mice, Fig S3i, in g (unit assumed)
# Method: Six-week-old male NOD.CB17-Prkdc^scid/J (NOD/SCID) mice (Jackson Labs, Bar Harbor, ME, USA) were used as the human-in-mouse xeno-transplantation model. MOLM14 cells (1 × 10^7 cells) were injected into the subcutaneous space on the left flank of the mice. […] Body weight and tumor size were monitored before every injection. After treatment for 2 weeks, the mice were euthanized by CO2 inhalation and the tumors were carefully excised. The tumor volume (mm^3) was measured and calculated using the formula (a × b × b)/2 (a, the largest diameter of two measurements; b, the smallest diameter of two measurements).
# PBMC = assay: Cytotoxicity, cell viability assay in normal cells; assay type: cell-based, human; conditions: Fig 5c
# Excerpt: (§2) Human peripheral blood mononuclear cells (PBMCs), normal T-cells and B-cells were provided by the University of Pennsylvania Human Immunology Core (HIC), and Patient-derived xenografts (PDXs) were obtained from Fox Chase Cancer Center (FCCC). These samples were from different unidentified and healthy donors with written, informed consent. All the procedures were approved by the Institutional Review Board (IRB) and conducted according to the declarations of Helsinki protocols.
# as §1
# [2] = Cytotoxicity, cell viability assay in normal cells; assay type: cell-based, human; conditions: human, PBMC, fraction of 0 μM control, read-out: relative cell viability (Fig 6a), replicates
# Excerpt: as §2, §1
# [3] = Cytotoxicity, cell viability assay in normal cells; assay type: cell-based; conditions: human, fraction of 0 μM control; for viability at 0.000244141 μM: Con. 0.000244141 μM; for viability at 0.015625 μM: Con. 0.015625 μM; for viability at 0.0625 μM: Con. 0.0625 μM; for viability at 1 μM: Con. 1 μM
# Excerpt: as §2, §1
# PI3Kγ = target: T1, PI3Kγ (Homo sapiens, UniProt P48736); assay: Competitive binding pull-down assay in SU-DHL-4 cell lysates, western blot; conditions: SU-DHL-4 lysates, 51048 together with parent Brusatol
# T1 construct: endogenous in cells; host or cells: SU-DHL-4 cells (lysate)
# Method: Thirty microgram of purified GST-tagged proteins were pre-cleared with Dynabeads M-280 Streptavidin (Invitrogen, Carlsbad, CA, USA). […] The complexes were harvested and washed with PBS. The collected beads were mixed with SDS loading buffer for further analysis.
# (§3) Western blot analyses were performed as previously described. Briefly, total cell lysates were separated by SDS-PAGE gel and transferred to nitrocellulose membrane. The membranes were blocked with 5% non-fat milk, probed with specific antibodies, and visualized using the Odyssey scanner (LiCor Inc., Lincoln, NE).
# LCL1 cells [4] = assay: RNA-Seq and Ingenuity Pathway Analysis (upstream regulator analysis); assay type: cell-based, human
# Method: The cDNA library was prepared with the commercial Illumina library preparation kits (TruSeq Stranded RNA LT Ribo-Zero H/M/R Kit) according to the manufacturer’s protocols and sequenced with an Illumina HiSeq2000 instrument (Washington University Genome Sequencing Center). Quality check was performed on the raw RNA-Seq reads (FastQC, https://www.bioinformatics.babraham.ac.uk/projects/fastqc/), and the adapters were cut (Trim Galore, https://www.bioinformatics.babraham.ac.uk/projects/trim_galore/) and mapped with hg38 genome (HISAT2)[64]. Differentially expressed transcripts were defined with Cuffdiff tools[65] and visualized using R software (https://www.r-project.org/). Signaling pathway analysis was conducted with the Ingenuity Pathway Analysis program (QIAGEN Inc., https://www.qiagenbioinformatics.com/products/ingenuitypathway-analysis)[27].
# LCL1 cells [5] = assay: Western blot of PI3K/AKT signaling proteins; assay type: cell-based, human; conditions: LCL1, Fig. 2i
# Method: as §3
# K562 cells = assay: Western blot of PI3K/AKT signaling proteins; assay type: cell-based, human; conditions: K562, 0, 50 nM, 100 nM; 0, 12 h, 24 h
# Method: as §3
# SU-DHL-4 cells = assay: Western blot of PI3K/AKT signaling proteins; assay type: cell-based, human; conditions: SU-DHL-4, 0, 50 nM, 100 nM; 0, 12 h, 24 h
# Method: as §3
# HL-60 cells = assay: Western blot of PI3K/AKT signaling proteins; assay type: cell-based, human; conditions: HL-60, 0, 50 nM, 100 nM; 0, 12 h, 24 h
# Method: as §3
# LCL1 cells [6] = assay: Real-time PCR, mRNA expression; assay type: cell-based, human
# Method: (§4) Real-time PCR experiments were performed as previously described. The experiments were performed in triplicate.
# Raji cells = assay: Real-time PCR, mRNA expression; assay type: cell-based, human
# Method: as §4
# [7] = B-cells, read-out: relative cell viability (Fig 6c), replicates
# [8] = T-cells, read-out: relative cell viability (Fig 6b), replicates
# [9] = Brusatol-treated LCL1 cells, RNA-Seq, IPA
# T1 sequence (P48736 whole entry): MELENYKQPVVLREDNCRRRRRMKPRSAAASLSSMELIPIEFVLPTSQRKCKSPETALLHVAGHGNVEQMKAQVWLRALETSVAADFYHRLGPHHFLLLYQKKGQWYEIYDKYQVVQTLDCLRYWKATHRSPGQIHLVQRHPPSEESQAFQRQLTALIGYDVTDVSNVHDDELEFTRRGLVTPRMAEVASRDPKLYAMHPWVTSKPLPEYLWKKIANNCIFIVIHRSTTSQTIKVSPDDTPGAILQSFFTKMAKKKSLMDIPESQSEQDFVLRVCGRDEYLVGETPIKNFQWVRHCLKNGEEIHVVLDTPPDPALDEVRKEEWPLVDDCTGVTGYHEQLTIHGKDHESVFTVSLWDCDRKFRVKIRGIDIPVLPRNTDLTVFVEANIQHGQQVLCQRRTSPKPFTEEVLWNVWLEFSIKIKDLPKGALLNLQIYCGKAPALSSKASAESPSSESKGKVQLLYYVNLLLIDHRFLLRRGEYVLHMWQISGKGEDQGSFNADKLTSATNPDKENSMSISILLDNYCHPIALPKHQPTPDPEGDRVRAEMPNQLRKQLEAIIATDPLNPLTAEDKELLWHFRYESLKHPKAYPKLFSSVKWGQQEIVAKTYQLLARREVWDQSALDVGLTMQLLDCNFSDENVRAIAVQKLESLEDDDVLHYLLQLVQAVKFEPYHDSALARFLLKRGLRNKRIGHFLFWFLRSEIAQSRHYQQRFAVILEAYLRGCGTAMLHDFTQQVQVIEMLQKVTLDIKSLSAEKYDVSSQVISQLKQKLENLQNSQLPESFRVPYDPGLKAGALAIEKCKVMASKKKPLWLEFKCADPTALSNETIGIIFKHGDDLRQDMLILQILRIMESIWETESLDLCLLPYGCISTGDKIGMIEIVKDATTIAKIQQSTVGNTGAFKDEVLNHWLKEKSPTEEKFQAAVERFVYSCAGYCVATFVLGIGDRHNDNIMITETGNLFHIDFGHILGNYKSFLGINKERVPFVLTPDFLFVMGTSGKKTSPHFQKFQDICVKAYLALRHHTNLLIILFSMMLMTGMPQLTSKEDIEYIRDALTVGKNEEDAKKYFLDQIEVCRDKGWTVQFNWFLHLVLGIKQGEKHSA
compound,measurement,setting,value
COC(=O)C12OCC34C(CC5C(C)=C(OC(=O)CNC(=O)OC(C)(C)C)C(=O)CC5(C)C3C(O)C1O)OC(=O)C(OC(=O)C=C(C)C)C24 (stereo not shown) [#15],viability at 0.00244141 µM,"MOLM14 cells; MOLM-14, read-out: relative cell viability (Fig 6e), replicates, MOLM14, Con. 0.00244141 μM, fraction of 0 μM control",71.1%
same,viability at 0.0390625 µM,"MOLM14 cells; MOLM-14, read-out: relative cell viability (Fig 6e), replicates, MOLM14, Con. 0.0390625 μM, fraction of 0 μM control",15%
same,viability at 0.15625 µM,"MOLM14 cells; MOLM-14, read-out: relative cell viability (Fig 6e), replicates, MOLM14, Con. 0.15625 μM, fraction of 0 μM control",5.59%
same,viability at 0.625 µM,"MOLM14 cells; MOLM-14, read-out: relative cell viability (Fig 6e), replicates, MOLM14, Con. 0.625 μM, fraction of 0 μM control",3.26%
same,viability at 10 µM,"MOLM14 cells; MOLM-14, read-out: relative cell viability (Fig 6e), replicates, MOLM14, Con. 10 μM, fraction of 0 μM control",3.59%
same,Body weight,[1]; 0d,22.36 and 23.19 and 22.87 and 22.58 and 24.63
same,Body weight,[1]; 2d,23.14 and 23.83 and 23.95 and 23.84 and 24.63
same,Body weight,[1]; 4d,23.76 and 24.67 and 24.61 and 23.58 and 25.59
same,Body weight,[1]; 6d,23.47 and 24.61 and 23.88
same,Body weight,[1]; 8d,23.92 and 24.24 and 24.72 and 24.85 and 23.89 and 25.62
same,Body weight,[1]; 10d,24.4 and 25.19 and 24.12
same,Body weight,[1]; 12d,25.79 and 25.75 and 24.71 and 26.96
same,"Cell viability, raw luminescence reading",PBMC; Con. 0.01 μM,24385 and 24514
same,"Cell viability, raw luminescence reading",PBMC; Con. 0.039 μM,25686 and 22234
same,"Cell viability, raw luminescence reading",PBMC; Con. 0.156 μM,6585 and 8242
same,"Cell viability, raw luminescence reading",PBMC; Con. 0.625 μM,7188 and 7989
same,"Cell viability, raw luminescence reading",PBMC; Con. 10 μM,9130 and 9273
same,viability at 0.000244141 μM,[2]; Con. 0.000244141 μM,104%
same,viability at 0.00390625 μM,[2]; Con. 0.00390625 μM,91.7%
same,viability at 0.015625 μM,[2]; Con. 0.015625 μM,76.5%
same,viability at 0.0625 μM,[2]; Con. 0.0625 μM,74.9%
same,viability at 1 μM,[2]; Con. 1 μM,61.2%
same,viability at 0.000244141 μM,[3]; [7],80.4%
same,viability at 0.00390625 μM,"[3]; B-cells, Con. 0.00390625 μM, read-out: relative cell viability (Fig 6c), replicates",96.8%
same,viability at 0.015625 μM,[3]; [7],100%
same,viability at 0.0625 μM,[3]; [7],89.1%
same,viability at 1 μM,[3]; [7],91.6%
same,viability at 0.000244141 μM,[3]; [8],101%
same,viability at 0.015625 μM,[3]; [8],83.4%
same,viability at 0.0625 μM,[3]; [8],82.3%
same,viability at 1 μM,[3]; [8],83.3%
Brusatol,binding of 51048 with PI3Kγ in the presence of competitor,PI3Kγ,reduced
same,"Expr Other, upstream regulator ALDH1A2",LCL1 cells [4]; [9],-1.404
same,"Expr Other, upstream regulator ARRB2",LCL1 cells [4]; [9],-0.306
same,"Expr Other, upstream regulator CBX5",LCL1 cells [4]; [9],-1.126
same,"Expr Other, upstream regulator CD22",LCL1 cells [4]; [9],2.89
same,"Expr Other, upstream regulator CDC73",LCL1 cells [4]; [9],-0.568
same,"Expr Other, upstream regulator CYLD",LCL1 cells [4]; [9],-1.473
same,"Expr Other, upstream regulator DICER1",LCL1 cells [4]; [9],1.146
same,"Expr Other, upstream regulator DNAJB6",LCL1 cells [4]; [9],0.673
same,"Expr Other, upstream regulator FKBP4",LCL1 cells [4]; [9],0.61
same,"Expr Other, upstream regulator GMNN",LCL1 cells [4]; [9],-1.679
same,"Expr Other, upstream regulator GRN",LCL1 cells [4]; [9],0.925
same,"Expr Other, upstream regulator IFNGR1",LCL1 cells [4]; [9],0.304
same,"Expr Other, upstream regulator KMT2D",LCL1 cells [4]; [9],-0.912
same,"Expr Other, upstream regulator NONO",LCL1 cells [4]; [9],1.295
same,"Expr Other, upstream regulator PAX8",LCL1 cells [4]; [9],1.9
same,"Expr Other, upstream regulator PTPRJ",LCL1 cells [4]; [9],-1.699
same,"Expr Other, upstream regulator RARRES3",LCL1 cells [4]; [9],2.648
same,"Expr Other, upstream regulator SOD2",LCL1 cells [4]; [9],1.251
same,"Expr Other, upstream regulator UPF2",LCL1 cells [4]; [9],-0.435
same,"Expr Other, upstream regulator WDR5",LCL1 cells [4]; [9],0.395
same,"Expr Other, upstream regulator ZC3H12A",LCL1 cells [4]; [9],-1.316
same,CTNNA1 transcript (RNA-Seq),"LCL1 cells [4]; LCL1, 72 h",dramatically downregulated
same,SLC22A1 transcript (RNA-Seq),"LCL1 cells [4]; LCL1, 72 h",highly upregulated
same,levels of AKT1 and GSK3 proteins,LCL1 cells [5],decreased
same,"protein expression of AKT1, GSK3, and mTOR",K562 cells,minimally affected
same,"protein expression of AKT1, GSK3, and mTOR",SU-DHL-4 cells,substantially reduced
same,"protein expression of AKT1, GSK3, and mTOR",HL-60 cells,minimally affected
same,"mRNA levels of AKT1, ATF3, PIK3CG, and PIK3C2B",LCL1 cells [6],downregulated
same,"mRNA levels of AKT1, ATF3, PIK3CG, and PIK3C2B",Raji cells,downregulated
